# Assay results as given in patent publication US7858657B2 (Proix Pharmaceutical Corp., priority 2004, dated 2010).
# Several values for one entry are separate records, joined by “and”; a condition that tells them apart may be missing. Identical values can stand only once. Like-named read-outs stand apart in the source and are kept apart here.
# Experiments:
# [1] = test system: A-549 human nsc lung cancer xenografts; assay: Antitumor studies, PX-866 and gefitinib in A-549 xenografts; type: in vivo, scid mice; details: for Tumor T/C %, PX-844 4 hrs before gefitinib / Tumor T/C %: 100 mm3 tumors; for Tumor T/C %: end of dosing period
# Experimental: Antitumor Studies. […] When the tumors reached 100 or 600 mm3 the mice were stratified into groups of 8 animals having approximately equal mean tumor volumes and drug administration was started. […] Animals were weighed weekly and tumor diameters were measured twice weekly at right angles (d short and d long) with electronic calipers and tumor volumes calculated by the formula volume=(dshort)2×(dlong))2. When the tumor reached 2,000 mm3 or more, or became necrotic the animals were euthanized.
# In vivo antitumor studies. […] Tumors were allowed to grow to a mean volume of […] before drug treatment was started every other day for 14 doses. Antitumor activity is expressed as the % volume of the treated tumor/control tumor (T/C %) at the end of the dosing period. There were 8 mice in each group and all differences are p<0.01.
# [2] = test system: A-549 cells; type: cell-based, human; details: PX-866 at concentrations up to 100 nM
# Experimental: (§1) Cells. […] All cell lines were tested to be mycoplasma free using a PCR ELISA kit (Roche Diagnostics Inc., Indianapolis, Ind.).
# [3] = test system: HT-29 colon; assay: Antitumor activity of wortmannin analogs, HT-29 colon tumor (Table 1); type: in vivo; details: initial tumor vol 170 mm^3, 12 mg/kg/day ip Q1D × 9
# [4] = test system: A-673 thabdomyosarcom xenografts; assay: Antitumor effect of PX-866 with bevacizumab, A-673 xenografts; type: in vivo; details: PX-866 intravenously or orally every three days in combination with bevacizumab (FIG. 14)
# Experimental: PX-866 was administered at varying doses intravenously or orally every three days alone or in combination with bevacizumab.
# [5] = test system: phospho-Akt in A-549 cells; assay: cells; type: cell-based; details: Homo sapiens, A549; A-549 cells in media containing 10% fbs; read-out: IC50, inhibition of phospho-Akt
# Experimental: as §1
# (§2) Measurement of PtdIns-3-kinase.
# [6] = molecular target: T1, p120γ (Homo sapiens, UniProt P48736); assay: Inhibition of recombinant PtdIns-3-kinase, [32P]-ATP dependent phosphorylation of PtdIns; type: biochemical; details: recombinant enzyme
# T1 construct: purchased Upstate (Charlottesville, Va.)
# Excerpt: (§3) Materials and Methods. Compounds. […] Rabbit purified anti-phosphoSer473-Akt antibody, anti-Akt antibody, antiphospho Tyr1086-EGF-receptor antibody and anti-EGFR antibody were obtained from Cell Signaling Technology (Beverly, Mass.). Human recombinant p110α/p85α, p110β/p85α, p120 (and p110*/p85α PtdIns-3-kinases were obtained from Upstate (Charlottesville, Va.). Metformin hydrochloride was obtained from Spectrum Chemical (Gardena, Calif.), pioglitazone hydrochloride and recombinant human insulin from Sigma Chemical (St. Louis).
# as §2
# [7] = molecular target: T2, p110β/p85α (Homo sapiens, UniProt P42338); assay: as above; type: biochemical; details: recombinant enzyme
# T2 construct: purchased Upstate (Charlottesville, Va.)
# Excerpt: as §3, §2
# [8] = molecular target: T3, p110δ/p85α (Homo sapiens, UniProt O00329); assay: as above; type: biochemical; details: recombinant enzyme
# T3 construct: purchased Upstate (Charlottesville, Va.)
# Excerpt: as §3, §2
# [9] = test system: Panc-1 pancreatic; assay: Antitumor activity of cytotoxic drugs alone or combined with PX-866, Panc-1 pancreatic (Table 2); type: in vivo; details: for Alone Growth delay days / Alone TGI % / Alone log cell kill: size 75 mm^3
# [10] = test system: tumor phospho-EGFR (A-549 tumor xenografts); type: in vivo, scid mice
# [11] = test system: OvCaR-3 ovarian; assay: Antitumor activity of wortmannin analogs, OvCaR-3 ovarian tumor (Table 1); type: in vivo; details: initial tumor vol 120 mm^3, 8 mg/kg/day ip Q1D × 9
# [12] = Toxicity studies, blood counts in C57B1/6 mice; type: in vivo; details: PX-866 3 mg/kg po every other day for 15 doses
# Experimental: Toxicity Studies. […] The mice were killed 24 hr after the last dose and changes in body weight, blood lymphocyte, neutrophil, red blood cell, platelet counts, serum glucose, aspartate amino transferase (AST), and amino alanine transferase (ALT) were measured.
# [13] = test system: HT-29 xenograft phosphor-Akt; assay: Inhibition of HT-29 xenograft phospho-Akt by wortmannin analogs (pharmacodynamics); type: in vivo
# Experimental: The pharmacodynamics of various wortmannin analogs were tested. […] PX-866 was administered intraperitoneal, intravenously and orally.
# [14] = Plasma insulin levels after PX-866; type: in vivo, C57B1/6 mice; details: PX-866 single dose of 10 mg/kg po (FIG. 10)
# Excerpt: PX-866 and glucose tolerance.
# [15] = PX-866 iv 15 mg/kg Q3D × 3 combined with gemcitabine ip 150 mg/kg Q3D × 3
# [16] = PX-866 po 5 mg/kg Q3D × 3 combined with gemcitabine ip 150 mg/kg Q3D × 3
# T2 sequence (P42338 whole entry): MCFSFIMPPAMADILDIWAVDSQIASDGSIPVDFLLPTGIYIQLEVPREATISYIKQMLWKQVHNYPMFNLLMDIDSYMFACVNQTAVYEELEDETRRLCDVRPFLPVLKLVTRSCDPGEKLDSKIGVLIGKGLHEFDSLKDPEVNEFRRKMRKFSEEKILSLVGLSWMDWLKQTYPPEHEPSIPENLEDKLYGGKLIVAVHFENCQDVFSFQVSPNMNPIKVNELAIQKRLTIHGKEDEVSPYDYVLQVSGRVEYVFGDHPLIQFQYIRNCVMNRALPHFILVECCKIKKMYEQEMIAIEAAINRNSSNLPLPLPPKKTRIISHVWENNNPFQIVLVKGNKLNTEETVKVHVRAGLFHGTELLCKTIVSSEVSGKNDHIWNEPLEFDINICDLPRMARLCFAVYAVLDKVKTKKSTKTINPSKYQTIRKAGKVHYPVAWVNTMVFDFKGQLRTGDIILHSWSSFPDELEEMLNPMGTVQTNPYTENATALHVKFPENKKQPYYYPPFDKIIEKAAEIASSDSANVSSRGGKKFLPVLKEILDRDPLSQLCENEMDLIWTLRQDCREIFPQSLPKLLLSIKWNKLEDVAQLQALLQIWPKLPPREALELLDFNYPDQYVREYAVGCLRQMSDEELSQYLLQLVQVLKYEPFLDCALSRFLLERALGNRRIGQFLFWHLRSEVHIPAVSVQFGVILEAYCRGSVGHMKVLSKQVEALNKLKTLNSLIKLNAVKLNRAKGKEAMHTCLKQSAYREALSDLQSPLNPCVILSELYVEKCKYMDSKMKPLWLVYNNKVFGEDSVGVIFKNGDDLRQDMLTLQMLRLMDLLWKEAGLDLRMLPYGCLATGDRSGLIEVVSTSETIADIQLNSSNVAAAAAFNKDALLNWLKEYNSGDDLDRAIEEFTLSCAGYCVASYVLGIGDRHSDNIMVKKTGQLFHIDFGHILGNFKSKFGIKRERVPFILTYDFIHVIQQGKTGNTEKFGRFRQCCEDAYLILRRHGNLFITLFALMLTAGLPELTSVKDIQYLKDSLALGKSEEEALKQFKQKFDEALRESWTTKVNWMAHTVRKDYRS
# T2 sequence (P27986 whole entry partner): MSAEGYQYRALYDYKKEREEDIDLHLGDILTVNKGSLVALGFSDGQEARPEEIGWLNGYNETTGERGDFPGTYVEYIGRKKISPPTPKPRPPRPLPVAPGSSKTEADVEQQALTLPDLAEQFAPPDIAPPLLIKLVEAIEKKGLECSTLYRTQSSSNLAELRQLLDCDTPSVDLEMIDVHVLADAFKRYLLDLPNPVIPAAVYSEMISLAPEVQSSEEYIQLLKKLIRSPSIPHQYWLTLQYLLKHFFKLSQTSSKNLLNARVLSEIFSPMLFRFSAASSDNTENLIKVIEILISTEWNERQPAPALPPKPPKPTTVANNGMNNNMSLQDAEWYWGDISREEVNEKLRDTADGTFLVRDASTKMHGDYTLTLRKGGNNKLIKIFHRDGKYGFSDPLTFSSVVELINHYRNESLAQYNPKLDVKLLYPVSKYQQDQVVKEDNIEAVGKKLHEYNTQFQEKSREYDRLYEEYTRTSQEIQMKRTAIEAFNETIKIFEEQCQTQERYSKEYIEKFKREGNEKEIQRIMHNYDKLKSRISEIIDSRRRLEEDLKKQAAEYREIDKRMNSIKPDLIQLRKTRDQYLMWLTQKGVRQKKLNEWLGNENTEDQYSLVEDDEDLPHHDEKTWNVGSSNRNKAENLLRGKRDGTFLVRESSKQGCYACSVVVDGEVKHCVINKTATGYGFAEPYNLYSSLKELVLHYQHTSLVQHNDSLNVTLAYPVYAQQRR
# T1 sequence (P48736 whole entry): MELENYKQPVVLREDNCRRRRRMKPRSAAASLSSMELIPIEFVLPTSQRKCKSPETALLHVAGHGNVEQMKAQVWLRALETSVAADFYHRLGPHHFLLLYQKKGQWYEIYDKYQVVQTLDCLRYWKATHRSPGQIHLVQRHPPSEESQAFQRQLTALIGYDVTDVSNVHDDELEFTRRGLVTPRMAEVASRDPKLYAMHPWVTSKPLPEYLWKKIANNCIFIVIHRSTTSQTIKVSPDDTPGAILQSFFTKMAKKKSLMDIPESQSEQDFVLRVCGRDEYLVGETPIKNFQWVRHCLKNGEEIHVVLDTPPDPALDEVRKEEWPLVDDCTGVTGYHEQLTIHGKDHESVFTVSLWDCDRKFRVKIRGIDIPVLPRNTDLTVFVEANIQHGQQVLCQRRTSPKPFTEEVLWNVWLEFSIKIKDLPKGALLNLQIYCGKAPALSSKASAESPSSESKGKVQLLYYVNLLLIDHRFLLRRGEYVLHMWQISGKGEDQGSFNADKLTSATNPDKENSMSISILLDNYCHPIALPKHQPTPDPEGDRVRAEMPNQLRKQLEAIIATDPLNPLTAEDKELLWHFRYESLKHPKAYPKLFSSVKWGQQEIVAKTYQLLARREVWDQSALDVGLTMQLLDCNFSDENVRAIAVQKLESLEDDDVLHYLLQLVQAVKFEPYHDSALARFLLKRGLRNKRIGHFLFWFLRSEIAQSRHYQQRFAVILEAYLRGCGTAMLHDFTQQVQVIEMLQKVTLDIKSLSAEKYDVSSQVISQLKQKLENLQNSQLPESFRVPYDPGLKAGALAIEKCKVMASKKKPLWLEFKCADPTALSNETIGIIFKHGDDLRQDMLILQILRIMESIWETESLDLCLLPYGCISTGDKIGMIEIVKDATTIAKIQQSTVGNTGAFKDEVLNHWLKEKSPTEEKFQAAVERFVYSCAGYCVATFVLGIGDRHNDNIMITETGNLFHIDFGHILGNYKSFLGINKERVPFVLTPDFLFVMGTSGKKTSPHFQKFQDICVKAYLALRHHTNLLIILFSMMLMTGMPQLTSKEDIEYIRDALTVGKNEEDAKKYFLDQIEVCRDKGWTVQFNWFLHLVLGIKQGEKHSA
# T3 sequence (O00329 whole entry): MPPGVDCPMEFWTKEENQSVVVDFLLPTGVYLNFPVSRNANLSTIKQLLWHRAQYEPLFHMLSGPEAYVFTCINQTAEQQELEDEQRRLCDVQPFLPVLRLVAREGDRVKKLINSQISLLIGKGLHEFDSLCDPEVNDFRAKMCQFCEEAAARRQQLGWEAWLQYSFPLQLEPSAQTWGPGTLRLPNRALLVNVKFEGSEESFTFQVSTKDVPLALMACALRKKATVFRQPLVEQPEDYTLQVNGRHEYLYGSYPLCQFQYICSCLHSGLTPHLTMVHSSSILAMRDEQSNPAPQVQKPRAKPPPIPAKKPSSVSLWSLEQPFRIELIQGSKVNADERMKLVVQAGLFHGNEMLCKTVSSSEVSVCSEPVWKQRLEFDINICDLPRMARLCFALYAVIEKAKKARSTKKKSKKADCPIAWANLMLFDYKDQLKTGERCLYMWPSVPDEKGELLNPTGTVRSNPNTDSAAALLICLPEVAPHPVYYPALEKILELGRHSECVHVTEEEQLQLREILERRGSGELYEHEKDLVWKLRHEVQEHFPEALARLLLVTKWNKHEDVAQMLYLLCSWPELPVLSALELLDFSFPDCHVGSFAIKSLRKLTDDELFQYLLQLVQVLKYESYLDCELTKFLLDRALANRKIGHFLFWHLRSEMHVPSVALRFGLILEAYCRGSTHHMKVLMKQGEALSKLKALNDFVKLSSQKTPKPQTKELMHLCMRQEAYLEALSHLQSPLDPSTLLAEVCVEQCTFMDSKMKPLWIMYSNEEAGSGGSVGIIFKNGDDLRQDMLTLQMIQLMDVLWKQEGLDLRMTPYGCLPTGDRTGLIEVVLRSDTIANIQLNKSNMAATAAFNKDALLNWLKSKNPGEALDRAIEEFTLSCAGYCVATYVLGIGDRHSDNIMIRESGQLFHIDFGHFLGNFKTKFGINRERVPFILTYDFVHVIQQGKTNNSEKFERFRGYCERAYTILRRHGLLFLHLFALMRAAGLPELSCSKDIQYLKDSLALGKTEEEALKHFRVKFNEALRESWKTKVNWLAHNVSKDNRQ
# T3 sequence (P27986 whole entry partner): as the sequence (P27986 whole entry partner) above
compound,measurement,setting,value
C=CCN(/C=C1/C(=O)O[C@H](COC)[C@@]2(C)C1=C(O)C(=O)C1=C2[C@H](OC(C)=O)C[C@]2(C)C(=O)CC[C@@H]12)CC=C [PX-866],"Tumor T/C %, PX-844 4 hrs before gefitinib","[1]; PX-866 IV 4 mg/kg QOD × 14, 4 hr before gefitinib 75 mg/kg po",20.5%
same,Tumor T/C %,[1]; PX-866 IV 4 mg/kg QOD × 14 alone,65.3%
same,"Tumor T/C %, PX-844 4 hrs before gefitinib","[1]; PX-866 IV 9 mg/kg QOD × 14, 4 hr before gefitinib 75 mg/kg po",22% and 22.3%
same,Tumor T/C %,"[1]; PX-866 IV 9 mg/kg QOD × 14 alone, 9 mg/kg",31% and 31.5%
same,"Tumor T/C %, PX-844 4 hrs before gefitinib","[1]; PX-866 PO 1 mg/kg QOD × 14, 4 hr before gefitinib 75 mg/kg po",40.8%
same,Tumor T/C %,[1]; PX-866 PO 1 mg/kg QOD × 14 alone,54.8%
same,"Tumor T/C %, PX-844 4 hrs before gefitinib","[1]; PX-866 PO 2.5 mg/kg QOD × 14, 4 hr before gefitinib 75 mg/kg po",18% and 18.1%
same,Tumor T/C %,"[1]; PX-866 PO 2.5 mg/kg QOD × 14 alone, 2.5 mg/kg",41% and 40.8%
same,"combination antitumor activity, large tumors","[1]; PX-866 with gefitinib, 600 mm3 A-549 tumor xenografts (FIG. 7B)",Increased combination antitumor activity
same,tumor T/Cs,"[1]; administered long term, single agent (discussion)",around 50%
same,activity of combination with gefitinib by timing,"[1]; alternating day schedule, preliminary studies, data not shown",more active when administered 4 hr before rather than 24 hr after gefitinib
same,enhancement of the growth inhibition by gefitinib,[2],did not enhance
same,Growth Delay,[3],6 days
same,Log10 cell kill,[3],0.4
same,T/C % (optimal test/control),[3]; day 16,39 (16) %
same,antitumor activity with bevacizumab,[4],significantly increased the antitumor activity of bevacizumab
same,IC50,[5],25 nM
same,IC50,[6],9 nM
same,IC50,[7],> 300 nM
same,IC50,[8],2.7 nM
same,Combined Growth delay days,[9]; [15],8 days
same,Combined TGI %,[9]; [15],49%
same,Combined log cell kill,[9]; [15],0.2
same,Combined Growth delay days,[9]; [16],19 days
same,Combined TGI %,[9]; [16],60%
same,Combined log cell kill,[9]; [16],0.5
same,Alone Growth delay days,[9]; PX-866 iv 15 mg/kg Q3D × 3,4 days
same,Alone TGI %,[9]; PX-866 iv 15 mg/kg Q3D × 3,16%
same,Alone log cell kill,[9]; PX-866 iv 15 mg/kg Q3D × 3,0.1
same,Alone Growth delay days,[9]; PX-866 po 5 mg/kg Q3D × 3,0 days
same,Alone TGI %,[9]; PX-866 po 5 mg/kg Q3D × 3,14%
same,Alone log cell kill,[9]; PX-866 po 5 mg/kg Q3D × 3,0
same,effect upon tumor phospho-EGFR,[10]; PX-866 3 mg/kg po every other day for 5 days,no significant effect
same,effect upon tumor phospho-EGFR,[10]; PX-866 12 mg/kg iv every other day for 5 days,no significant effect
same,effect upon tumor phospho-EGFR,[10]; combination of gefitinib and PX-866,inhibited both
same,Growth Delay,[11],12 days
same,Log10 cell kill,[11],1.2
same,T/C % (optimal test/control),[11]; day 40,30 (40) %
same,change in any other blood elements,[12],no significant change
same,neutrophil counts,"[12]; ±S.E., n=4",3.7±1.8 K/:l
same,inhibition of HT-29 xenograft phosphor-Akt,"[13]; dose dependency, PX-866, PX-867 and PX-881 compared (FIG. 1A)",greatest inhibitory activity
same,inhibition of HT-29 xenograft phosphor-Akt over time by route,[13]; oral compared with intraperitoneal and intravenous (FIG. 1B),more consistent inhibition over a longer period of time
same,duration of increase in plasma insulin levels,[14],up to 5 hr
